Values of other authors as cited in US20260334526A1 (NICOVENTURES TRADING LIMITED, priority 2022, published 2026).

Assays:
[1] = for solubility: fats, alcohols, water
[2] = nicotine solution at pH=6 relative to pH 8.1; perfusion cell; Adrian et al.

| SMILES | solubility [1] | chemical stability ([1]; when isolated) | reduction of diffusion rate across human buccal tissue (factor) [2] |
| --- | --- | --- | --- |
| COC(=O)/C=C/C(C)=C\C=C\C(C)=C\C=C\C=C(C)\C=C\C=C(C)\C=C\C(=O)O [bixin, (2E,4E,6E,8E,10E,12E,14E,16Z,18E)-20-methoxy-4,8,13,17-tetramethyl-20-oxoicosa-2,4,6,8,10,12,14,16,18-nonaenoic acid] | soluble in fats and alcohols but insoluble in water | chemically unstable when isolated |  |
| CN1CCCC1c1cccnc1 (stereo not shown) [nicotine] |  |  | ~ 7 |
| CC(/C=C/C=C(C)/C=C/C(=O)O)=C\C=C\C=C(C)\C=C\C=C(C)\C=C\C(=O)O (stereo in doubt) [norbixin, (2E,4E,6E,8E,10E,12E,14E,16E,18E)-4,8,13,17-tetramethylicosa-2,4,6,8,10,12,14,16,18-nonaenedioic acid] | water-soluble |  |  |
